Results taken from PubChem BioAssay (NCI).
Values joined by “and” are separate entries in the source; they are usually repeats but may differ in a detail not shown here. Identical values can stand only once.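 Growth conditions: 96-well plates. Treatment: test compound, 48 hours, 5 concentrations. Analysis: linear interpolation between bracketing concentrations; unreached endpoints set to highest concentration. GI50 = concentration required for 50% inhibition of growth. TGI denotes the concentration required for complete inhibition of growth.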

Legend:
Assay in all cases: growth of human tumour cells (NCI), 48 h
MDA-MB-435 = system: MDA-MB-435
PC-3 prostate = system: PC-3 prostate
HS 578T breast = system: HS 578T breast
BT-549 breast = system: BT-549 breast
MDA-N = system: MDA-N
DMS 114 small cell lung = system: DMS 114 small cell lung
HOP-18 NSCLC = system: HOP-18 NSCLC
XF 498 CNS = system: XF 498 CNS

SMILES: Cc1c(C(=O)NCCN2CCOCC2)cn2ncnc(Oc3ccc(NC(=O)Nc4ccc(Cl)c(C(F)(F)F)c4)cc3)c12
- GI50 (MDA-MB-435): 1290 nM
- TGI (MDA-MB-435): 2.75 µM
- GI50 (PC-3 prostate): 0.842 µM
- TGI (PC-3 prostate): 2.33 µM
- GI50 (HS 578T breast): 1480 nM
- TGI (HS 578T breast): 3.99 µM
- GI50 (BT-549 breast): 1.66 µM
- TGI (BT-549 breast): 3.21 µM

SMILES: O=C(O)c1ccc2c(c1)CCCC(c1ccc(Cl)cc1Cl)=C2c1ccc(O[C@H]2CCN(CCCF)C2)cc1
- GI50 (MDA-MB-435): 10500 nM
- TGI (MDA-MB-435): 24.3 µM
- GI50 (PC-3 prostate): 10.4 µM
- TGI (PC-3 prostate): 24.2 µM
- GI50 (HS 578T breast): 12900 nM
- TGI (HS 578T breast): 31.8 µM
- GI50 (BT-549 breast): 10 µM
- TGI (BT-549 breast): 22.9 µM

SMILES: COc1cc2ncnc(Nc3ccc(F)c(Cl)c3)c2cc1NC(=O)/C=C/CN1CCCCC1
- GI50 (MDA-MB-435): 1600 nM and 1460 nM
- TGI (MDA-MB-435): 3.42 µM and 2.95 µM
- GI50 (PC-3 prostate): 2.53 µM and 2.78 µM
- TGI (PC-3 prostate): 10.5 µM and > 10 µM
- GI50 (HS 578T breast): 2010 nM and 921 nM
- TGI (HS 578T breast): 19.6 µM and 5.6 µM
- GI50 (BT-549 breast): 2.49 µM and 2.56 µM
- TGI (BT-549 breast): 8.32 µM and 9.98 µM

SMILES: COC(=O)c1nc(Cl)nc(Cl)c1Cl
- TGI (MDA-N): 76.8 µM
- TGI (MDA-MB-435): 29.3 µM
- TGI (PC-3 prostate): 34.9 µM
- TGI (HS 578T breast): 85 µM

SMILES: OCCNc1ncnc2c1ncn2Cc1cccc(COc2cccc(OCc3cccc(Cn4cnc5c(NCCO)ncnc54)c3)c2)c1
- GI50 (MDA-MB-435): 14900 nM
- TGI (MDA-MB-435): 35.7 µM
- GI50 (PC-3 prostate): 14.5 µM
- TGI (PC-3 prostate): 30.4 µM
- GI50 (HS 578T breast): 11800 nM
- TGI (HS 578T breast): 28.7 µM
- GI50 (BT-549 breast): 11.9 µM
- TGI (BT-549 breast): 25.9 µM

SMILES: Cn1c2c(c3ccc(Cl)c(Cl)c31)C(C#N)C1(CCNCC1)NC2=O (stereo unspecified)
- GI50 (MDA-MB-435): 1400 nM
- TGI (MDA-MB-435): 2.9 µM
- GI50 (PC-3 prostate): 1.55 µM
- TGI (PC-3 prostate): 4.99 µM
- GI50 (HS 578T breast): 1130 nM
- TGI (HS 578T breast): 3.61 µM
- GI50 (BT-549 breast): 3.04 µM
- TGI (BT-549 breast): 16.7 µM

SMILES: Cc1sc2nc3c4ccccc4c(NCCCN(C)C)nn3c(=O)c2c1C
- GI50 (MDA-MB-435): 1790 nM
- TGI (MDA-MB-435): 3.74 µM
- GI50 (PC-3 prostate): 11.5 µM
- TGI (PC-3 prostate): 24.2 µM
- GI50 (HS 578T breast): 3150 nM
- TGI (HS 578T breast): 17.5 µM
- GI50 (BT-549 breast): 11.7 µM
- TGI (BT-549 breast): 26.9 µM

SMILES: O=c1cccc(C2CC(CO)C3CCCCN3C2)[nH]1 (stereo unspecified)
- TGI (MDA-N): > 100 µM
- TGI (MDA-MB-435): > 100 µM
- TGI (PC-3 prostate): > 100 µM
- TGI (HS 578T breast): > 100 µM
- TGI (BT-549 breast): > 100 µM

SMILES: CCN(CC)C(=S)SC
- TGI (MDA-N): > 100 µM
- TGI (PC-3 prostate): > 100 µM
- TGI (HS 578T breast): > 100 µM
- TGI (BT-549 breast): > 100 µM

SMILES: COc1cc(C(=O)Nc2cc3c(cc2Oc2cc(C)cc(C)c2)C(=O)N(C)[C@@H](CC(=O)N(C)O)C(=O)N3)c(Br)c(OC)c1OC
- GI50 (MDA-MB-435): < 3.33 nM
- TGI (MDA-MB-435): 0.00351 µM
- GI50 (PC-3 prostate): < 0.00333 µM
- TGI (PC-3 prostate): 0.00358 µM
- GI50 (HS 578T breast): < 3.33 nM
- TGI (HS 578T breast): 0.00422 µM
- GI50 (BT-549 breast): < 0.00333 µM
- TGI (BT-549 breast): < 0.00333 µM

SMILES: COC(=O)C(CC(=O)Nc1ccc(C)cc1)C(=O)C(=O)Nc1ccccc1C(C)C (stereo unspecified)
- TGI (DMS 114 small cell lung): > 100 µM
- TGI (HOP-18 NSCLC): > 100 µM
- TGI (XF 498 CNS): > 100 µM

SMILES: CCC[n+]1cc2cc(OC)c(OC)cc2c2c1-c1cc3c(cc1C2)OCO3
- GI50 (MDA-N): 2830 nM
- TGI (MDA-N): 11 µM
- GI50 (MDA-MB-435): 3290 nM
- TGI (MDA-MB-435): 12.4 µM
- GI50 (PC-3 prostate): 4.7 µM
- TGI (PC-3 prostate): 20.7 µM
- GI50 (HS 578T breast): 1630 nM
- TGI (HS 578T breast): 13.6 µM
- GI50 (BT-549 breast): 0.658 µM
- TGI (BT-549 breast): 10.6 µM

SMILES: COc1ccc2[nH]c(O)c(C(=Nc3ccc(N(C)C(=O)CN4CCN(C)CC4)cc3)c3ccccc3)c2c1
- GI50 (MDA-MB-435): 1290 nM
- TGI (MDA-MB-435): 11.3 µM
- GI50 (PC-3 prostate): 3.52 µM
- TGI (PC-3 prostate): 17.5 µM
- GI50 (HS 578T breast): 1090 nM
- TGI (HS 578T breast): 4.67 µM
- GI50 (BT-549 breast): 1.55 µM
- TGI (BT-549 breast): 3.19 µM

SMILES: COc1cc(-c2cn(-c3ccc(Cl)c(Cl)c3)c(=O)n2C(C)=O)cc(OC)c1OC
- GI50 (MDA-MB-435): 14200 nM
- TGI (MDA-MB-435): 35 µM
- GI50 (PC-3 prostate): 4.3 µM
- TGI (PC-3 prostate): 17.8 µM
- GI50 (HS 578T breast): 6160 nM
- TGI (HS 578T breast): 29.3 µM
- GI50 (BT-549 breast): 10.7 µM
- TGI (BT-549 breast): 22.7 µM

SMILES: CCOC(=O)/C=C/C1=C(c2cccs2)c2ccccc2CC1
- GI50 (MDA-MB-435): 20600 nM
- TGI (MDA-MB-435): 51.3 µM
- GI50 (PC-3 prostate): 37.1 µM
- TGI (PC-3 prostate): > 100 µM
- GI50 (HS 578T breast): 28500 nM
- TGI (HS 578T breast): 99.1 µM
- GI50 (BT-549 breast): 24.2 µM
- TGI (BT-549 breast): 54.3 µM

SMILES: COc1ccc(Cn2cc3c(c2)-c2oncc2CC3)cc1
- GI50 (MDA-MB-435): 635 nM
- TGI (MDA-MB-435): 5.75 µM
- GI50 (PC-3 prostate): 5.26 µM
- TGI (PC-3 prostate): 61.1 µM
- GI50 (HS 578T breast): 3000 nM
- TGI (HS 578T breast): 13.8 µM
- GI50 (BT-549 breast): 4.79 µM
- TGI (BT-549 breast): 66.1 µM

SMILES: C/C(=N\N(c1ccccc1)c1ccccc1)c1c(O)cc(C)oc1=O
- TGI (HOP-18 NSCLC): > 100 µM

SMILES: O=C1C(c2ccccc2)=[N+]([O-])c2ccccc21
- TGI (MDA-N): 12.8 µM
- TGI (MDA-MB-435): 11.2 µM
- TGI (PC-3 prostate): 27.3 µM
- TGI (HS 578T breast): 82.9 µM

SMILES: Cc1cc(S(=O)(=O)NC#N)c(S/C(=N\Nc2ccc([N+](=O)[O-])cc2)c2ccc(Cl)cc2)cc1Cl
- GI50 (MDA-MB-435): 64300 nM
- TGI (MDA-MB-435): > 100 µM
- GI50 (PC-3 prostate): 33.6 µM
- TGI (PC-3 prostate): > 100 µM
- GI50 (HS 578T breast): 17200 nM
- TGI (HS 578T breast): 58 µM
- GI50 (BT-549 breast): 20.3 µM
- TGI (BT-549 breast): 73.4 µM

SMILES: Fc1cc2[nH]ncc2c2c3c(c(-c4cn[nH]c4C(F)(F)F)nc12)C1CCC3C1 (stereo unspecified)
- GI50 (MDA-MB-435): 1520 nM
- TGI (MDA-MB-435): 7.14 µM
- GI50 (HS 578T breast): 808 nM
- TGI (HS 578T breast): 2.67 µM
- GI50 (BT-549 breast): 0.883 µM
- TGI (BT-549 breast): 2.97 µM

SMILES: Cc1cc2c(cc1C)N(C(=O)CCl)CCN2C(=O)CCl
- GI50 (MDA-MB-435): 1020 nM
- TGI (MDA-MB-435): 2.69 µM
- GI50 (PC-3 prostate): 1.43 µM
- TGI (PC-3 prostate): 2.89 µM
- GI50 (HS 578T breast): 1750 nM
- TGI (HS 578T breast): 4.96 µM
- GI50 (BT-549 breast): 1.31 µM
- TGI (BT-549 breast): 2.7 µM

SMILES: Cc1cc(Cl)ccc1Nc1nc(C(F)(F)F)ccc1C(=O)N/N=C/c1ccc([N+](=O)[O-])cc1
- GI50 (MDA-MB-435): 2450 nM
- TGI (MDA-MB-435): 7.69 µM
- GI50 (PC-3 prostate): 0.598 µM
- GI50 (HS 578T breast): 1140 nM
- TGI (HS 578T breast): 2.91 µM
- GI50 (BT-549 breast): 1.5 µM
- TGI (BT-549 breast): 4.96 µM

SMILES: COc1ccc(-c2ccc(-c3ccc(C(=N)N)cn3)o2)cc1
- GI50 (MDA-MB-435): 2180 nM
- TGI (MDA-MB-435): 4.97 µM
- GI50 (PC-3 prostate): 4.18 µM
- TGI (PC-3 prostate): 18 µM
- GI50 (HS 578T breast): 10900 nM
- TGI (HS 578T breast): 36.7 µM
- GI50 (BT-549 breast): 10.7 µM
- TGI (BT-549 breast): 22.8 µM

SMILES: Cc1nc2sccn2c1-c1csc(Nc2cccc(Cl)c2C)n1
- GI50 (MDA-MB-435): 1950 nM
- TGI (MDA-MB-435): 6.47 µM
- GI50 (PC-3 prostate): 3.72 µM
- TGI (PC-3 prostate): 87.3 µM
- GI50 (HS 578T breast): 4560 nM
- TGI (HS 578T breast): 51.2 µM
- GI50 (BT-549 breast): 3.44 µM
- TGI (BT-549 breast): 20.5 µM

SMILES: CN(C)CC1CCC/C1=N\O (stereo unspecified)
- TGI (HOP-18 NSCLC): > 100 µM

SMILES: CCn1c(-c2nonc2N)nc2c(C#CC(C)(C)O)nc(OCCNC)cc21
- GI50 (MDA-MB-435): 8580 nM
- TGI (MDA-MB-435): > 25 µM
- GI50 (PC-3 prostate): 6.88 µM
- TGI (PC-3 prostate): > 25 µM
- GI50 (HS 578T breast): 6030 nM
- TGI (HS 578T breast): > 25 µM
- GI50 (BT-549 breast): 7.17 µM
- TGI (BT-549 breast): > 22.1 µM

SMILES: COc1ccccc1/C=C/C(=O)c1ccccc1
- GI50 (MDA-MB-435): 5160 nM
- TGI (MDA-MB-435): 21.7 µM
- GI50 (PC-3 prostate): 5.65 µM
- TGI (PC-3 prostate): 28 µM
- GI50 (HS 578T breast): 12100 nM
- TGI (HS 578T breast): > 25.5 µM
- GI50 (BT-549 breast): 10.2 µM
- TGI (BT-549 breast): 23.9 µM
